# Experimental data from patent US20240228490A1, “HETEROCYCLIC DERIVATIVE INHIBITOR AND PREPARATION METHOD THEREFOR AND APPLICATION THEREOF” (Shanghai Hansoh Biomedical Co., Ltd., priority 2021, published 2024).
# Legend:
# [1] = molecular target: PARP1 enzyme (Homo sapiens (Human), UniProt P09874); experiment: Inhibitory activity on PARP1 enzyme (chemiluminescence); type: biochemical
# Protocol: The inhibitory activity of the compounds on PARP1 enzyme was determined by the chemiluminescence method in the experiment. The experiment was carried out in a 384-well plate. Coating histones in a 384-well plate: 5×histone solution was diluted 5 folds with PBS, added to a 384-well ELISA plate (25 μL per well), and incubated at 4° C. overnight. […] A mixture of PARP reaction biotin-labeled substrate, activated DNA, 10×PARP buffer and water was added (12.5 μL per well). Compound solutions with different concentrations were formulated using the experimental buffer (10% DMSO aqueous solution containing 1.25 mM DTT). The final detection concentration started from 100 nM, with 3-fold dilution and 8 concentrations. The compound solutions were added to the reaction wells of the 384-well plate (2.5 μL per well). 2.5 μL of 10% DMSO aqueous solution containing 1.25 mM DTT was added to the positive control well and blank well (2.5 μL per well). […] The plate was centrifuged at 1000 rpm for 1 minute, and reacted at room temperature for 60 minutes. […] Streptavidin-HRP solution diluted 50 folds with Blocking buffer 3 was added (25 μL per well), and the plate was incubated at room temperature for 30 minutes. […] The luminescence reaction solution obtained by mixing ECL substrate A and ELISA ECL substrate B (1:1) was added (50 μL per well) for reaction. The chemiluminescence values were measured immediately with a BioTek Synergy H1 or Envision instrument.
# The chemiluminescence values were measured with a BioTek Synergy H1 or Envision instrument. The inhibition rate was calculated, and the concentration and inhibition rate were fitted to a nonlinear regression curve using Graphpad Prism software to obtain the IC50 value.
# [2] = tested on: BRCA2 Knockout DLD-1 cells; experiment: Inhibition of proliferation of BRCA2 Knockout DLD-1 cells (CellTiter-Glo); type: cell-based; details: Homo sapiens, about 144 hours incubation
# Protocol: BRCA2 Knockout DLD-1 cells were cultured using RPMI1640 culture medium containing 10% FBS to an appropriate cell density. The cells were collected, and adjusted to an appropriate cell concentration using the complete culture medium. The cell suspension was spread on a 96-well plate (90 μL per well), and placed in a 37° C., 5% CO2 incubator overnight. Compound solutions of different concentrations were formulated using DMSO and culture medium, and vehicle control was set up. The compound solutions were added to the 96-well plate (10 μL per well), and the plate was incubated in a 37° C., 5% CO2 incubator for about 144 hours. CellTiter-Glo solution was added, and the plate was shaken to mix evenly, and incubated in the dark for 10 to 30 minutes. The values were measured with a Synergy H1 or Envision microplate reader.
# The inhibition rate was calculated using the luminescence signal value. The concentration and inhibition rate were fitted to a nonlinear regression curve using Graphpad Prism software to obtain the IC50 value.
# [3] = tested on: PAR in tumor tissue; experiment: PD part of PK/PD study in MDA-MB-436 subcutaneous xenograft model: inhibition of PAR in tumor tissue (Western blot); type: in vivo, BALB/c nude mice; details: within 24 hours after a single administration, MDA-MB-436 model
# Protocol: • a. Grouping: According to the growth of the tumor, when the tumor grew to a volume of 300-500 mm^3, tumor-bearing mice were selected according to the experimental design and randomly grouped (3 mice per each time point) to start the PK/PD test. • b. Fasting: All tumor-bearing mice were fasted (with free access to water) overnight (fasting >8 hours) before the administration. • c. Administration: Except for the blank control group, a single oral administration was carried out according to the time of the experimental design, and the administration volume was 10 mL/kg. • d. Sample collection: The mice were euthanized by CO2 asphyxiation according to the time of the experimental design, and the samples were collected. One plasma sample and three tumor tissue samples were collected from each animal.
# Tumor tissue collection: After the blood collection, the tumor tissue was collected. The collected tumor tissue was divided into 3 aliquots (˜0.1 g each), placed into labeled 2 mL centrifuge tubes, and stored in a refrigerator at −80±10° C. for PK or PD test.
# 1 mL of tumor lysis solution was added to each tube of tumor tissue sample, followed by the addition of steel beads. […]
# Protein quantification was performed by BCA protein quantification kit. […]
# c. […] PAR was subjected to fluorescence imaging, and Gapdh internal control was subjected to fluorescence imaging using IRDye 800 CW channel.
# [4] = Pharmacokinetic assay in Balb/C mice; details: male, mouse, plasma, po, 1 mg/kg
# Protocol: Balb/C mice were used as test animals.
# (§1) Male Balb/C mice (6 mice per example), purchased from Shanghai Jiesijie Laboratory Animal Co., LTD, with Certificate No.: SCXK (Shanghai) 2013-0006 N0.311620400001794.
# (§2) 5 g of hydroxyethyl cellulose (HEC, CMC-Na, viscosity: 800-1200 Cps) was weighed and dissolved in 1000 mL of purified water, followed by the addition of 10 g of Tween 80. The mixture was mixed well to obtain a clear solution.
# (§3) 2.05 mg of the compound was weighed and dissolved in the solution. The mixture was shaken well, crushed in a cell crusher for 1 minute, and sonicated for 15 minutes to obtain a suspension with a concentration of 0.1 mg/mL.
# (§4) After an overnight fast, male Balb/C mice were administered p.o. with the test compound at a dose of 1 mg/kg and a volume of 10 mL/kg.
# (§5) 0.04 mL of blood was taken from the orbit of the mouse at 0, 0.5, 1, 2, 4, 6, 8 and 24 hours after the administration. The samples were stored in EDTA-K2 tubes, and centrifuged for 6 minutes at 4° C., 6000 rpm to separate the plasma. The plasma samples were stored at −80° C. The mouse was fed 4 hours after the administration.
# (§6) • Liquid chromatography condition: Shimadzu LC-20AD pump • Mass spectrometry condition: AB Sciex API 4000 mass spectrometer • Chromatographic column: phenomenex Gemiu 5 μm C18 50×4.6 mm • Mobile phase: Eluent A was 0.1% formic acid in water, and Eluent B was acetonitrile • Flow rate: 0.8 mL/min • Elution time: 0-4.0 minutes, the eluent is as follows:
# (§7) The main parameters of pharmacokinetics were calculated by WinNonlin 8.2.
# [5] = Bidirectional permeability through Caco-2 cell model; details: human
# Protocol: (§8) 100 μL of transport buffer (HBSS containing 10 μM test compound, 0.5% BSA, and 0.5% DMSO) was added to the administration end of A to B • b. 300 μL of transport buffer (HBSS containing 0.5% BSA) was added to the receiving end of A to B • c. 300 μL of transport buffer (HBSS containing 10 μM test compound, 0.5% BSA, and 0.5% DMSO) was added to the administration end of B to A • d. 100 μL of transport buffer (HBSS containing 0.5% BSA) was added to the receiving end of B to A • e. Incubation for 2 hours • d. Samples were taken, processed and detected by mass spectrometry.
# (§9) • Instrument: liquid chromatography; • Chromatographic column: Waters XSelect HSS T3 C18 (2.1*50 mm, 2.5 μm); • Mobile phase: phase A: water containing 0.1% formic acid; phase B: acetonitrile containing 0.1% formic acid.
# (§10) • Instrument: API4000 liquid chromatography-mass spectrometer; • Ion source: electrospray ionization source (ESI); • Detection method: positive ion detection; • Scan mode: multiple reaction monitoring (MRM) mode.
# [6] = tested on: human colorectal cancer cell line DLD-1 BRCA2−/− subcutaneous xenograft tumor; experiment: In vivo pharmacodynamic study in DLD-1 BRCA2−/− subcutaneous xenograft tumor model; details: oral, once/day, 21 days
# Protocol: BALB/c nude mice, 6 to 8 weeks old, 9, purchased from the Experimental Animal Management Department of Shanghai Institute of Family Planning
# The recovered cells were plated in a cell culture flask (the cell type, date, name of the experimenter and the like were labeled on the wall of the flask), and cultured in a CO2 incubator (the temperature was 37° C. and the CO2 concentration was 5% in the incubator). • b. Cells were passaged once every three days. After passage, the cells continued to be cultured in the CO2 incubator. This process was repeated until the number of cells was sufficient for the in vivo efficacy test. • c. The cultured cells were collected, and counted with an automatic cell counter. According to the counting results, the cells were resuspended with PBS to obtain a cell suspension (density: 5×10^7/mL), which was placed in an ice box for later use.
# The nude mice were labeled with disposable universal ear tags for rats and mice before inoculation. • b. During the inoculation, the cell suspension was mixed well. 0.1 to 1 mL of the cell suspension was drawn with a 1 mL syringe, air bubbles were removed, and then the syringe was placed on an ice pack for later use. • c. The nude mouse was bound with the left hand. The position on the right side of the back close to the right shoulder of the nude mouse (inoculation site) was disinfected with 75% alcohol. Inoculation started after 30 seconds. • d. The test nude mice were successively inoculated (each mouse was inoculated with 0.1 mL of cell suspension).
# According to the tumor growth, the tumor was measured on 10 to 18 days after the inoculation, and the tumor size was calculated.
# Calculation of tumor volume: tumor volume (mm^3)=length (mm)×width (mm)×width (mm)/2 • b. The tumor-bearing mice were grouped according to their body weight and tumor size by random grouping. • c. […] Tumors were measured and the mice were weighed twice a week after the administration of test compounds began. • e. Animals were euthanized at the end of the experiment. • f. Data were processed by using softwares such as Excel.
# [7] = in vivo; details: male, Balb/C, mouse, po, 1 mg/kg
# Protocol: Balb/C mice were used as test animals.
# as §1, §2, §3, §4, §5, §6, §7
# [8] = in vitro; details: human, Caco-2
# Protocol: as §8, §9, §10
# PARP1 enzyme, sequence (P09874 whole entry): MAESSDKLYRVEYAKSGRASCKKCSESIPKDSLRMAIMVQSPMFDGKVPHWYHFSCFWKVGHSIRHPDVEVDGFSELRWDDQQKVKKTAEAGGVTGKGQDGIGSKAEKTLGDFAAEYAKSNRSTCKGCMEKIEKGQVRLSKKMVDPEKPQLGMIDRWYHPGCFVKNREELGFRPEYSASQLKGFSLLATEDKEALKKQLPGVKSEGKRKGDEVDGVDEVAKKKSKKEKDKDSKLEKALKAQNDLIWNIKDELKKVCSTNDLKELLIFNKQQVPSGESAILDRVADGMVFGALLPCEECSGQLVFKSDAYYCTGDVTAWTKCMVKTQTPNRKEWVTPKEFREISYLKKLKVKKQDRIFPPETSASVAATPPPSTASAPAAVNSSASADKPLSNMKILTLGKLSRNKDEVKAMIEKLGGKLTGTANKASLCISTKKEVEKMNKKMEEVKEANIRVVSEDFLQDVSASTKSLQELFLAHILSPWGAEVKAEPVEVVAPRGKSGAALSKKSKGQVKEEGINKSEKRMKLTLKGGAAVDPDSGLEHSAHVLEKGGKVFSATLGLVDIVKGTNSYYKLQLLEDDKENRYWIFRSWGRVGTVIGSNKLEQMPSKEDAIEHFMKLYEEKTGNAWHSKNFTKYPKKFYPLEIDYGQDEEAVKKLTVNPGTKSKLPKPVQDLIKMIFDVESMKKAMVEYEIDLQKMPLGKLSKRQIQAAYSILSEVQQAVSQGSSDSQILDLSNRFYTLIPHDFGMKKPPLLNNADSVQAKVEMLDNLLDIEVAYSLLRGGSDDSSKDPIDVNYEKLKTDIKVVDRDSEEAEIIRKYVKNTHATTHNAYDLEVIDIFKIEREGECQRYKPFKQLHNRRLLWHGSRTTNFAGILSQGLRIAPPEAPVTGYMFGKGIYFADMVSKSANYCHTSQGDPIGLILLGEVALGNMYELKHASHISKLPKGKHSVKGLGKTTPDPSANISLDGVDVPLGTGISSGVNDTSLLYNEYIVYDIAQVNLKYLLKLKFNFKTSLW
Structure (SMILES),IC50 [1] [nM],IC50 [2] [nM],Inhibition of intratumoral PAR compared with AZD5305 [3],AUC(0-t) [4] [ng·h/mL],Cmax [4] [ng/mL],Tmax [4] [h],half-life [4] [h],"Papp A→B at 2 h, 10 μM [5] [×10⁻⁶ cm/s]","Papp B→A at 2 h, 10 μM [5] [×10⁻⁶ cm/s]",Animal's body weight [6],Tumor growth inhibition rate TGI (%) [6] [%],"efflux ratio at 2 h, 10 μM [5]",AUC(0-t) [7] [ng·h/mL],Cmax [7] [ng/mL],Tmax [7] [h],half-life [7] [h],"Papp A→B at 2 h, 10 μM [8] [×10⁻⁶ cm/s]","Papp B→A at 2 h, 10 μM [8] [×10⁻⁶ cm/s]","efflux ratio at 2 h, 10 μM [8]"
"CCc1cc2ncc(CN3CC=C(c4ccc(C(=O)NC)nc4)CC3)cc2[nH]c1=O [Example 1, 1′-((7-Ethyl-6-oxo-5,6-dihydro-1,5-naphthyridin-3-yl)methyl)-N-methyl-1′,2′,3′,6′-tetrahydro-[3,4′-bipyridine]-6-carboxamide]",0.93,1.2,comparable,119000,9930,1,6.9,12.8,19.2,no significant decrease,> 90,,,,,,,,
"CCc1cc2ncc(CN3CCN(c4cnc5c(NC)nccc5c4)CC3)cc2[nH]c1=O [Example 3, 3-Ethyl-7-((4-(8-(methylamino)-1,7-naphthyridin-3-yl)piperazin-1-yl)methyl)-1,5-naphthyridin-2(1H)-one]",0.4,,,12700,1570,0.5,3.7,7.15,24.1,no significant decrease,> 90,3.4,,,,,,,
"CCc1cc2ncc(CN3CC=C(c4ccc(C(=O)NC5CC5)nc4)CC3)cc2[nH]c1=O [Example 29, N-Cyclopropyl-1′-((7-ethyl-6-oxo-5,6-dihydro-1,5-naphthyridin-3-yl)methyl)-1′,2′,3′,6′-tetrahydro-[3,4′-bipyridine]-6-carboxamide]",0.98,1.9,,60600,8270,0.5,3.7,12.2,19,no significant decrease,> 90,1.6,,,,,,,
"CCc1cc2ncc(CN3CC=C(c4ccc(C(=O)NC)nc4C#N)CC3)cc2[nH]c1=O [Example 35, 2-Cyano-1′-((7-ethyl-6-oxo-5,6-dihydro-1,5-naphthyridin-3-yl)methyl)-N-methyl-1′,2′,3′,6′-tetrahydro-[3,4′-bipyridine]-6-carboxamide]",1,2.3,,,,,,,,,> 90,,43200,6100,0.5,2.7,5.19,15.7,3
"CCc1cc2ncc(CN3CC=C(c4ccc(C(=O)NC)nc4F)CC3)cc2[nH]c1=O [Example 36, 1′-((7-Ethyl-6-oxo-5,6-dihydro-1,5-naphthyridin-3-yl)methyl)-2-fluoro-N-methyl-1′,2′,3′,6′-tetrahydro-[3,4′-bipyridine]-6-carboxamide]",0.8,1.6,,61900,6550,0.5,4.6,14.8,15.6,,,1.1,,,,,,,
"CNC(=O)c1ccc(C2=CCN(Cc3cnc4cc(C5CC5)c(=O)[nH]c4c3)CC2)cn1 [Example 45, 1′-((7-Cyclopropyl-6-oxo-5,6-dihydro-1,5-naphthyridin-3-yl)methyl)-N-methyl-1′,2′,3′,6′-tetrahydro-[3,4′-bipyridine]-6-carboxamide]",0.8,3.5,,,,,,,,,,,221000,8980,1,23,9.8,15.3,1.6
"CCc1cc2ncc(CN3CC=C(c4cnc(C(=O)NC)s4)CC3)cc2[nH]c1=O [Example 46, 5-(1-((7-Ethyl-6-oxo-5,6-dihydro-1,5-naphthyridin-3-yl)methyl)-1,2,3,6-tetrahydropyridin-4-yl)-N-methylthiazole-2-carboxamide]",0.6,,,,,,,,,,> 90,,,,,,,,
"CCc1cc2ncc(CN3CCN(c4cnc5c(NC)nc(C)cc5c4)CC3)cc2[nH]c1=O [Example 72, 3-Ethyl-7-((4-(6-methyl-8-(methylamino)-1,7-naphthyridin-3-yl)piperazin-1-yl)methyl)-1,5-naphthyridin-2(1H)-one]",,4.8,,,,,,5.23,12.7,,,2.5,,,,,,,
